Test results published in paper PMC3961306, “Comparison of the Cancer Gene Targeting and Biochemical Selectivities of All Targeted Kinase Inhibitors Approved for Clinical Use” (PLoS ONE, 2014).

Tests used:
Test in all cases: Kinase profiling in a biochemical assay panel (mobility shift assays and ELISA), %-inhibition at 1 μM; selectivity entropy
[1] = target: T1, panel of more than 300 wild-type and mutant kinases (313 kinase panel) (Homo sapiens, UniProt O60285); conditions: kinase NuaK1; 1 μM
T1 sequence (O60285 1-661): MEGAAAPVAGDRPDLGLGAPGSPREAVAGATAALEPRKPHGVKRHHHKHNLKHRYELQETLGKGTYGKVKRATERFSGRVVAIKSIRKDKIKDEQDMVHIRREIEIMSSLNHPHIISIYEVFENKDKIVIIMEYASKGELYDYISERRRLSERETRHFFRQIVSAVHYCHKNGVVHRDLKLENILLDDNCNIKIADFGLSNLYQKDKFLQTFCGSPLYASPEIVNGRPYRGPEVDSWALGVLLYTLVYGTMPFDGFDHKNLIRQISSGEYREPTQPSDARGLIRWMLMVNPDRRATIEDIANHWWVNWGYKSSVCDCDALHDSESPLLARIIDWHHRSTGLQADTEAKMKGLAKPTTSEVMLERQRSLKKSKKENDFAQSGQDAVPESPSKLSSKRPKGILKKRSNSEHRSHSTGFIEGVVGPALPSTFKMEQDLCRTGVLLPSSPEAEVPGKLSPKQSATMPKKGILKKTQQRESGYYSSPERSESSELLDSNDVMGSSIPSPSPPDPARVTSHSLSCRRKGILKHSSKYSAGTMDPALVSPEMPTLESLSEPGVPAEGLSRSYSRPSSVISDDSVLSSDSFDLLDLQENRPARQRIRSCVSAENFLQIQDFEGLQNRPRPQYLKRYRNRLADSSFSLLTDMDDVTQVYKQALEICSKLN

[2] = target: panel of more than 300 wild-type and mutant kinases (313 kinase panel) (Homo sapiens, UniProt P07948); conditions: kinase LYNa; compound at 1 μM
[3] = target: panel of more than 300 wild-type and mutant kinases (313 kinase panel) (Homo sapiens, UniProt P23458); conditions: kinase JAK1; compound at 1 μM
[4] = target: T2, panel of more than 300 wild-type and mutant kinases (313 kinase panel) (Homo sapiens, UniProt P33981); conditions: kinase TTK; compound at 1 μM
T2 sequence (P33981 1-857): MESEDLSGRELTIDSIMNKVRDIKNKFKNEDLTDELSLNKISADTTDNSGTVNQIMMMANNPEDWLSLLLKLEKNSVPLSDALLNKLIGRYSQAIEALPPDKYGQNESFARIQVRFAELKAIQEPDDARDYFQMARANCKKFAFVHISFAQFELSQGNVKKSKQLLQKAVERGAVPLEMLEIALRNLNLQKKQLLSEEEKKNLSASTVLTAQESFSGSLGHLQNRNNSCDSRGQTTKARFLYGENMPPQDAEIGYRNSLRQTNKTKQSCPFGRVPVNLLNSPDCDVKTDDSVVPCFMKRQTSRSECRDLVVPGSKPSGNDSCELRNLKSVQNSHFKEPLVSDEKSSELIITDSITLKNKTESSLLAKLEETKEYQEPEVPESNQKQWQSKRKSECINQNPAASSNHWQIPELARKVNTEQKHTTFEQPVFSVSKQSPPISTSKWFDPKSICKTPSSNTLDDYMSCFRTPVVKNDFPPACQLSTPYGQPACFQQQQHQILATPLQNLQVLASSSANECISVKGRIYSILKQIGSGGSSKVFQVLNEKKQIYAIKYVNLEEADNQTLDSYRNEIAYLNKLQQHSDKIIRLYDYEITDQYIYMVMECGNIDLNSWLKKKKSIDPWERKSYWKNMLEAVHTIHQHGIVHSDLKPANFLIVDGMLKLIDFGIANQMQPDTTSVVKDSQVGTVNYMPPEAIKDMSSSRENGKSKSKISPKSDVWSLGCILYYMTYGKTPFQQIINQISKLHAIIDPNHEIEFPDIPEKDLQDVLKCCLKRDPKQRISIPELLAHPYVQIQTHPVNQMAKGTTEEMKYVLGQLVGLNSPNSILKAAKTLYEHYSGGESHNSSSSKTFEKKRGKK

[5] = target: panel of more than 300 wild-type and mutant kinases (313 kinase panel) (Homo sapiens, UniProt P41240); conditions: kinase CSK; compound at 1 μM
Chain of panel of more than 300 wild-type and mutant kinases (313 kinase panel) (Homo sapiens, UniProt P41240) (P41240 whole entry, change not shown): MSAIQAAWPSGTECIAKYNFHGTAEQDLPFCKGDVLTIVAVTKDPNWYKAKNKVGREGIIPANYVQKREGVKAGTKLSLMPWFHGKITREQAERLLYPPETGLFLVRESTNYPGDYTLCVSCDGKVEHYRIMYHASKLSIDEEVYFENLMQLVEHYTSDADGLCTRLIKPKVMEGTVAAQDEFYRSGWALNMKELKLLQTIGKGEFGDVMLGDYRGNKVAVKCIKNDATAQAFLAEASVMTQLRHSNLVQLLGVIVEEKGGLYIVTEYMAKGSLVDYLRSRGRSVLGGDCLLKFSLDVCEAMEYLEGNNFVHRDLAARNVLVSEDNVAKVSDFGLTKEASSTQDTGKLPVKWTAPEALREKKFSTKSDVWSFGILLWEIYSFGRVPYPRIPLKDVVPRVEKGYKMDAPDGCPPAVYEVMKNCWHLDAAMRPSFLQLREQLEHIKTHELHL

[6] = target: T3, panel of more than 300 wild-type and mutant kinases (313 kinase panel) (Homo sapiens, UniProt P45985); conditions: kinase MAP2K4; compound at 1 μM
T3 sequence (P45985 1-399): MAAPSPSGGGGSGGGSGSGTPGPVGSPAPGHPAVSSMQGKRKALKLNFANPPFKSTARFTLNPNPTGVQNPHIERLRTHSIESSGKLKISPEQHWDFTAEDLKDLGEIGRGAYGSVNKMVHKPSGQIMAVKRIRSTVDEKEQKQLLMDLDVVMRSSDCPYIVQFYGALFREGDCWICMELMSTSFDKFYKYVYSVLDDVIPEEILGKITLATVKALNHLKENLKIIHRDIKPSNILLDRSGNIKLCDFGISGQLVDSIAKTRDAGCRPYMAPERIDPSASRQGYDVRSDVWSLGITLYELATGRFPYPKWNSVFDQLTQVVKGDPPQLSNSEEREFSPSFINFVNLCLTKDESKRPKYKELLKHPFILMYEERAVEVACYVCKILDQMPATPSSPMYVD

[7] = target: panel of more than 300 wild-type and mutant kinases (313 kinase panel) (Homo sapiens, UniProt P53667); conditions: kinase LIMK1; compound at 1 μM
[8] = target: panel of more than 300 wild-type and mutant kinases (313 kinase panel) (Homo sapiens, UniProt P68400); conditions: kinase CK2α1/β; 1 μM compound
[9] = target: panel of more than 300 wild-type and mutant kinases (313 kinase panel) (Homo sapiens, UniProt Q8N568); conditions: kinase DCAMKL2; compound at 1 μM

SMILES | %-inhibition of NuaK1 [1] | %-inhibition of LYNa [2] | %-inhibition of JAK1 [3] | %-inhibition of TTK [4] | %-inhibition of CSK [5] | %-inhibition of MAP2K4 [6] | %-inhibition of LIMK1 [7] | %-inhibition, CK2α1/β [8] | %-inhibition of DCAMKL2 [9]
CNC(=O)c1cc(Oc2ccc(NC(=O)Nc3ccc(Cl)c(C(F)(F)F)c3)c(F)c2)ccn1 [regorafenib] | -1.75% | 89% | 31% | 0.186% | 28% | 0.434% | 66% | -9% | -6%
CO[C@H]1C[C@@H]2CC[C@@H](C)[C@@](O)(O2)C(=O)C(=O)N2CCCC[C@H]2C(=O)O[C@H]([C@H](C)C[C@@H]2CC[C@@H](OCCO)[C@H](OC)C2)CC(=O)[C@H](C)/C=C(\C)[C@@H](O)[C@@H](OC)C(=O)[C@H](C)C[C@H](C)/C=C/C=C/C=C/1C [everolimus] | 4.27% | -1.27% | -7% | -2.68% | -7% | 1.55% | 3.28% | -4.26% | -5.64%
CC(=O)Nc1cccc(-n2c(=O)n(C3CC3)c(=O)c3c(Nc4ccc(I)cc4F)n(C)c(=O)c(C)c32)c1 [trametinib] | -0.634% | -1.74% | -1.83% | 59% | -2.83% | 2.18% | -1.84% | -3.4% | -2.4%
CO[C@H]1C[C@@H]2CC[C@@H](C)[C@@](O)(O2)C(=O)C(=O)N2CCCC[C@H]2C(=O)O[C@H]([C@H](C)C[C@@H]2CC[C@@H](OC(=O)C(C)(CO)CO)[C@H](OC)C2)CC(=O)[C@H](C)/C=C(\C)[C@@H](O)[C@@H](OC)C(=O)[C@H](C)C[C@H](C)/C=C/C=C/C=C/1C [temsirolimus] | 3.3% | -4.48% | -7% | -22% | -1.56% | 8.51% | -5% | -6.65% | -4%
